Test results as given in patent US20220175856A1, “UNRAVELING RECEPTOR-METABOLITE INTERACTIONS IN THE HUMAN MICROBIOME” (The Rockefeller University, priority 2019, published 2022).
“Also recorded” adds a separate entry of the source. Like-named read-outs stand apart in the source and are kept apart here. Blank lines part the entries; values can stand above or below the compound they belong to.

Experiments:
[1] = target: GPR109B (Homo sapiens, UniProt P49019); assay: cell-based
Source text: (§1) Individual bacteria from the SIHUMI consortium were fermented under anaerobic conditions in 20 L culture vessels, along with a media control containing no bacteria (FIG. 1). After 10 days, the extracellular metabolites were extracted and the crude mixture was partitioned into metabolite-rich fractions using reversed phased flash chromatography. The pre-fractionation process simplifies each fraction, thereby improving the signal in the primary screen and facilitating the downstream isolation of bioactive compounds. The fraction library was screened for agonist activity against individual GPCRs using a luminescence-based β-arrestin recruitment assay.
(§2) Compound plates were shipped on dry ice to Eurofins DiscoverX and the gperMAX and orphanMAX panels were run on all 80 samples in singleton.

[2] = target: T1, urotensin 2 receptor (UTR2) (Homo sapiens, UniProt Q9UKP6); assay: β-arrestin recruitment GPCR agonist assay (PathHunter), UTR2; assay type: cell-based; details: for agonist activity at UTR2: result in words
T1 sequence (Q9UKP6 1-389): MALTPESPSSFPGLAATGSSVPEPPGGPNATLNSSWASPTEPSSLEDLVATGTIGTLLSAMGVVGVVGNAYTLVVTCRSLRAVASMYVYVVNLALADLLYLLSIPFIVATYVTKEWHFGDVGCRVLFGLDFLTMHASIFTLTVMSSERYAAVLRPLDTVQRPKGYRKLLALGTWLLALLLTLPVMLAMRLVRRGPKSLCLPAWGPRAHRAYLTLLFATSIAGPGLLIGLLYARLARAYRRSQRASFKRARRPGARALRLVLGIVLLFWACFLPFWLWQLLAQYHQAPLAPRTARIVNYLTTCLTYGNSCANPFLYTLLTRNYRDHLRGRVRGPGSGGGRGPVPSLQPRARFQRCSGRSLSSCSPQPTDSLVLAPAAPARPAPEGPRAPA

[3] = target: brain angiogenesis factor 1 (BAI1) (Homo sapiens, UniProt O14514); assay: β-arrestin recruitment GPCR agonist assay (PathHunter), BAI1; assay type: cell-based
Chain of brain angiogenesis factor 1 (BAI1) (O14514 31-1584): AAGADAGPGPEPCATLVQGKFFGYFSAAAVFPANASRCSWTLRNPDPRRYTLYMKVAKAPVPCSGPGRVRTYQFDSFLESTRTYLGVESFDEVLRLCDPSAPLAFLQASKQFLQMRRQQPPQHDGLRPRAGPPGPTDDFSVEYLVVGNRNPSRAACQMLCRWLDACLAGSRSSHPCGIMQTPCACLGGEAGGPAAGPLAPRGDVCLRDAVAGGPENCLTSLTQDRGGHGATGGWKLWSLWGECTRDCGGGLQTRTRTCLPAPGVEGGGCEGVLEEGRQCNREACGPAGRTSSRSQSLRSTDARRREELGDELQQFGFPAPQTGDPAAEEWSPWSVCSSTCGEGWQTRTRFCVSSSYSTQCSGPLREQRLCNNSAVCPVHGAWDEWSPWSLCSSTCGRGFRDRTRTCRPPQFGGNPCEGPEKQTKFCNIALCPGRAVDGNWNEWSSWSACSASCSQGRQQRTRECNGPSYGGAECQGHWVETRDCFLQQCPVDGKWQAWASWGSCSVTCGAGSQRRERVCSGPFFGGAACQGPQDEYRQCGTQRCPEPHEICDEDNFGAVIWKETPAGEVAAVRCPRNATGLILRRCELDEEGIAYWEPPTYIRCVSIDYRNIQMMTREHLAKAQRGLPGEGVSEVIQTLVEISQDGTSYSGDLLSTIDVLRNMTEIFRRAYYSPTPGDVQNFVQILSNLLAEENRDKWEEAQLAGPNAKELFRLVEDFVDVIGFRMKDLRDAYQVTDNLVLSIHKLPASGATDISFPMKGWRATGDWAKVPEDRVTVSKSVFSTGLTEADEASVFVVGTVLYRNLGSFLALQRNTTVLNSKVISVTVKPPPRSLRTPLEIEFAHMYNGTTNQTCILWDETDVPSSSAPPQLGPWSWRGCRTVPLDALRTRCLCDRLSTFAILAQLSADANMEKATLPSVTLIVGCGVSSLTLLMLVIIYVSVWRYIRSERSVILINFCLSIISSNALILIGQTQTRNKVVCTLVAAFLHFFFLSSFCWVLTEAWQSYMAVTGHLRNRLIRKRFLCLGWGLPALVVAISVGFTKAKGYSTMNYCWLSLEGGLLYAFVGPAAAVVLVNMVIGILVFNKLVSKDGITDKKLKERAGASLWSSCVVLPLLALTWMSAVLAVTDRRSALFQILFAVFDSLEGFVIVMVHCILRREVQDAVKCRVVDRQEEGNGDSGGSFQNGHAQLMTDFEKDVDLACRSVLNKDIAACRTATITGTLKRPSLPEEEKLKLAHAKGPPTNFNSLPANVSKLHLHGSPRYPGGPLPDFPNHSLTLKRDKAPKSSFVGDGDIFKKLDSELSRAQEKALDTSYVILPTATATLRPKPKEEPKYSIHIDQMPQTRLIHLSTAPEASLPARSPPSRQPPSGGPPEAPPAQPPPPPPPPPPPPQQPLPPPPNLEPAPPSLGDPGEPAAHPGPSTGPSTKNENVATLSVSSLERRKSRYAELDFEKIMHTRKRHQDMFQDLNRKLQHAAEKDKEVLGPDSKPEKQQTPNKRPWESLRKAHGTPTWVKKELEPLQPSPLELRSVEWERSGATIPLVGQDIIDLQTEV

[4] = target: T2, GPR151 (Homo sapiens, UniProt Q8TDV0); assay: β-arrestin recruitment GPCR agonist assay (PathHunter), GPR151; assay type: cell-based; details: Table 1, GPCR GPR151 (Q8TDV0)
T2 sequence (Q8TDV0 1-419): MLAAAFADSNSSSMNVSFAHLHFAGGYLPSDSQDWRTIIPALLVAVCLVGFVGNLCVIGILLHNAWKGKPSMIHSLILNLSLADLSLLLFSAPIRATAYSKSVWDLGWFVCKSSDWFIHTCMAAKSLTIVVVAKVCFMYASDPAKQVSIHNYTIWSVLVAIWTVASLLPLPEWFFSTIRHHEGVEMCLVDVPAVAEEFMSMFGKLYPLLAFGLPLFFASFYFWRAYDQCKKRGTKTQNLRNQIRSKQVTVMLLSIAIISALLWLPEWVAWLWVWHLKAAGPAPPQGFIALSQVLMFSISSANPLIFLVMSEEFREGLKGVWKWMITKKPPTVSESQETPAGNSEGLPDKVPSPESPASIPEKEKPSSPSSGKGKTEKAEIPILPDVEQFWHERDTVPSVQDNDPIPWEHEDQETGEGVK

[5] = target: T3, NMU1R (neuromedin receptor 1) (Homo sapiens, UniProt Q9HB89); assay: β-arrestin recruitment GPCR agonist assay (PathHunter), NMU1R; assay type: cell-based; details: for agonist activity at NMU1R: result in words
T3 sequence (Q9HB89 1-426): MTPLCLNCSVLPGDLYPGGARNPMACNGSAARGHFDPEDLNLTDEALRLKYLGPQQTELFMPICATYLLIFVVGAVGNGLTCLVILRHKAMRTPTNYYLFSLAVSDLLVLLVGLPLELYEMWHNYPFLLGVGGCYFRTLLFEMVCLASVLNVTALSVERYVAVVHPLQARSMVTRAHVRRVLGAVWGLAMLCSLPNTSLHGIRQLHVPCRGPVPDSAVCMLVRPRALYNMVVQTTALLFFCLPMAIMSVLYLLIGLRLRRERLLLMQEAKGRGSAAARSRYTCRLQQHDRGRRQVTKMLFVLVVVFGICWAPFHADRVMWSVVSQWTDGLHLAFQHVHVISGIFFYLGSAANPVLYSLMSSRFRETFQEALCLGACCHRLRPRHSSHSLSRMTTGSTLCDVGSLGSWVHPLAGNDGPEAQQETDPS

[6] = target: HRH4 (Homo sapiens, UniProt Q9H3N8); assay: β-arrestin recruitment GPCR agonist assay (PathHunter), HRH4; assay type: cell-based; details: result in words
[7] = test system: histamine receptor (HRH) family; assay: β-arrestin recruitment GPCR agonist assay (PathHunter), histamine receptor family; assay type: cell-based, human; details: synthetic polyamines; result in words
[8] = test system: serotonin receptors (HTRs); assay: β-arrestin recruitment GPCR agonist assay (PathHunter), serotonin receptors; assay type: cell-based, human; details: result in words
[9] = test system: DRD2; assay: β-arrestin recruitment GPCR agonist assay (PathHunter), DRD2; assay type: cell-based, human; details: synthetic standard; result in words
Source text: as §1, §2

[10] = target: DRD3 (Homo sapiens, UniProt P35462); assay: β-arrestin recruitment GPCR agonist assay (PathHunter), DRD3; assay type: cell-based; details: synthetic standard; result in words
Chain of DRD3 (P35462 whole entry): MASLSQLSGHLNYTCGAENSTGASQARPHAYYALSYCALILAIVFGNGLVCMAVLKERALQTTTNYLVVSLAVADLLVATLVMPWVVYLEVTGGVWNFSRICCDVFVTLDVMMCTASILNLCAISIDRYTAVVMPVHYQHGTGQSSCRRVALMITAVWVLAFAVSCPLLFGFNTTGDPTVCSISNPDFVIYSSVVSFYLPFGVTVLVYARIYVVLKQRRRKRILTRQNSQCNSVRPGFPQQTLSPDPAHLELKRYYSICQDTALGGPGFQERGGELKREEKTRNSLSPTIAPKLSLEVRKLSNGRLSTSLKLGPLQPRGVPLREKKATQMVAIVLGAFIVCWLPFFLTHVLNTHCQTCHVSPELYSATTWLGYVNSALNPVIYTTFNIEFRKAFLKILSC

[11] = Table 1, GPCR UTR2 (Q9UKP6), read-out: EC50 (μM), UTR2

Chain of GPR109B (P49019 whole entry): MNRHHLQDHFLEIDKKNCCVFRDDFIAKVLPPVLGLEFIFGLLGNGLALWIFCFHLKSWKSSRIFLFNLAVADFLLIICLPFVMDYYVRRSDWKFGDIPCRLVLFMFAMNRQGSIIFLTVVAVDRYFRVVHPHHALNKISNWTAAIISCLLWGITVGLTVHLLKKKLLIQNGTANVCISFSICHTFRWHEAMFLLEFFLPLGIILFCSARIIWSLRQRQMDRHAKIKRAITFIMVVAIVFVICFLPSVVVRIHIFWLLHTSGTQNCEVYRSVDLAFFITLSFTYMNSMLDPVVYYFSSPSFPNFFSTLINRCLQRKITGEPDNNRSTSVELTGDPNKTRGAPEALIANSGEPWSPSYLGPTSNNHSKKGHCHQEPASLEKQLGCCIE

EC50 [1]: 208 µM
SMILES: O=C(O)C=Cc1ccc(O)cc1 [4-hydroxycinnamic acid]

EC50 [2, 11]: 52 µM
EC50 ([3]; Table 1, GPCR BAI1 (O14514)): 3.2 µM
SMILES: CCCCCCC1CC1CCCCCCCC(=O)O (stereo not drawn) [9,10-methylenehexadecanoic acid]
agonism of BAI1 ([3]; result in words): agonized BAIL; also recorded: BAIl-active

EC50 [2, 11]: 49 µM
EC50 ([2]; synthetic and natural compound, read-out: EC50, agonism of UTR2 (converted)): 202 µM
EC50 [4]: 49 µM
EC50 ([5]; Table 1, GPCR NMU1R (Q9HB89), read-out: EC50 (μM), NMU1R): 29 µM
agonist activity at NMU1R [5]: NMU1R-active
EC50 ([5]; synthetic and natural compound, read-out: EC50, agonism of NMU1R (converted)): 132 µM
SMILES: CCC(C)CCCCCCCCCCC(=O)O (stereo not drawn) [12-methylmyristic acid, 12-methyltetradecanoic acid]

EC50 [4]: 44 µM
SMILES: CC(C)CCCCCCCCCCCC(=O)O [13-methylmyristic acid, 13-methyltetradecanoic acid]

EC50 [4]: 40 µM
SMILES: CCC(C)CCCCCCCCCCCCC(=O)O (stereo not drawn) [14-methylpalmitic acid]

SMILES: N=C(N)NCCCCN [Agmatine, agmatine, reference compound]
agonism / activation of HRH4 [6]: selectively agonized HRH4 but to a lesser extent than cadaverine

agonist activity at UTR2 [2]: minimal agonist activity
agonist activity at NMU1R [5]: minimal agonist activity
SMILES: CCC(C)CCCCCCCCCCCCC(=O)O (stereo not drawn) [aiC17:0, reference compound]

agonism / activation of HRH4 ([6]; listed as Cadaverine): HRH4 agonist
SMILES: NCCCCCN [cadaverine]
agonism / activation of HRH4 [6]: major metabolite responsible for HRH4 activation; also recorded: HRH4 agonist

agonist activity at UTR2 [2]: minimal agonist activity
agonist activity at NMU1R [5]: minimal agonist activity
SMILES: CC(C)CCCCCCCCCCCC(=O)O [iC15:0, reference compound]

SMILES: NCCCCN [putrescine, reference compound]
agonism / activation of HRH4 [6]: selectively agonized HRH4 but to a lesser extent than cadaverine

SMILES: NCCCCNCCCN [spermidine]
HRH activity across the entire receptor family [7]: no HRH activity across the entire receptor family

SMILES: NCCc1c[nH]c2ccccc12 [tryptamine]
agonism of serotonin receptors (HTRs) [8]: can modulate serotonin receptors

agonism of DRD3 [10]: agonism of DRD2 and DRD3 was validated
SMILES: NCCc1ccc(O)cc1 [tyramine]
agonism of DRD2 [9]: agonism of DRD2 and DRD3 was validated
